Test results as given in BindingDB's records for doi:10.1021/cb900134c (Saic-Frederick, 2009).
pIC50: −log10 of the molar value.

Biological target: T1, Broad substrate specificity ATP-binding cassette transporter ABCG2 (Homo sapiens, UniProt Q9UNQ0)
T1 sequence (Q9UNQ0 whole entry): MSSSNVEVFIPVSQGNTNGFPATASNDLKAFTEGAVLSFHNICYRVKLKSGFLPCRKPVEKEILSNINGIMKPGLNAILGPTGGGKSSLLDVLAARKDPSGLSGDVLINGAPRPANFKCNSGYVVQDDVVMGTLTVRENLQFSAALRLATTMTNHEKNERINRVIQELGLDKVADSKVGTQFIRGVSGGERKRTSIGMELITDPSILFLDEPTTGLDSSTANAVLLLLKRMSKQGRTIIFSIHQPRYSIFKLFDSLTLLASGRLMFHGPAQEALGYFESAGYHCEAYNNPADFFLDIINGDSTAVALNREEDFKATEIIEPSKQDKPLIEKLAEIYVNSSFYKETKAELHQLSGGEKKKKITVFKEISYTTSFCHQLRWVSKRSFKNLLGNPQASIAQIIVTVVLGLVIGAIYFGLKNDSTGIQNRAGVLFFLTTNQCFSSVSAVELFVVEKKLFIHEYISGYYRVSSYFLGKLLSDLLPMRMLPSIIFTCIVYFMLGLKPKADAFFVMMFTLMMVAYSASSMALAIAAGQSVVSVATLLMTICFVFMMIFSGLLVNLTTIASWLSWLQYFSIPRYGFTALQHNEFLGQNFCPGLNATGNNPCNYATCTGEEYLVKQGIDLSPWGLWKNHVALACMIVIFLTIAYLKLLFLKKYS
Test: Screening Assay for ABCG2 Inhibitors
Settings: pH 7.4; 37 °C
Method: IC50 and maximal activities for inhibition of PhA accumulation were determined from dose-response curves. The accumulation of PhA, a fluorescent ABCG2 substrate, formed the basis of the assay for inhibitors of ABCG2 activity. NCI-H460/MX20 cells were transferred to black-walled, clear-bottomed 384-well polylysine-coated assay plates (Corning) and allowed to attach for several hours. PhA was added, immediately followed by compounds or vehicle (DMSO/PBS) control and incubated for an additional 18 h. After removal of medium and washing with PBS containing Ca2+ and Mg2+, fluorescence intensity was read on a Tecan Safire fluorescence plate reader in bottom read mode (395 nm excitation, 670 nm emission). Each plate had control wells containing Fumitremorgin C (FTC). Data were normalized to FTC and reported as the percentage of FTC fluorescence. Apparent IC50 values were calculated from dose-response data using SigmaPlot (SPSS, Inc., Chicago) 4-parameter logistic nonlinear regression analysis.

Compound	pIC50
CO/C(=C/c1ccc(O)cc1)C(=O)N/C=C/c1cc(Br)c(OC)c(Br)c1 [Botryllamide B, 2]	4.95
CO/C(=C/c1ccc(O)cc1)C(=O)N/C=C/c1ccc(OC)c(Br)c1 [Botryllamide D, 4]	4.79
COc1ccc2c3c([nH]c2c1)[C@H](C=C(C)C)N1C(=O)[C@@H]2CCCN2C(=O)[C@@H]1C3 [Fumitremorgin C]	6.10
CO/C(=C\c1ccc(O)cc1)C(=O)N/C=C/c1cc(Br)c(O)c(Br)c1 [US8470888, Botryllamide G]	5.16

Second part, the molecule after the results:

pIC50	Compound
4.38	CO/C(=C/c1ccc(O)cc1)C(=O)N/C=C/c1ccc(OC)cc1 [Botryllamide I, 9]
4.48	CO/C(=C\c1ccc(O)cc1)C(=O)N/C=C/c1cc(Br)c(OC)c(Br)c1 [US8470888, Botryllamide A]
4.78	CO/C(=C\c1ccc(O)cc1)C(=O)N/C=C/c1ccc(O)cc1 [US8470888, Botryllamide F]
4.63	CO/C(=C\c1ccc(O)cc1)C(=O)N/C=C/c1ccc(OC)cc1 [US8470888, Botryllamide I]
